Counter-ions that a name gives are not always drawn.
How the values were obtained:
[1] = target: T1, Phosphatidylinositol 3-kinase catalytic subunit type 3 (Homo sapiens, UniProt Q8NEB9); assay: Inhibition of Vps34 in human MCF7-LC3 cells; format: cell-based
[2] = Antitumor activity against human multiple myeloma cells; format: functional
[3] = Cytotoxicity against RSL3 resistance human HN3 cells assessed as reduction in cell viability; format: functional, cell-based
[4] = target: T1, Phosphatidylinositol 3-kinase catalytic subunit type 3; assay: Inhibition of Vps34 (unknown origin)
[5] = target: T1, Phosphatidylinositol 3-kinase catalytic subunit type 3; assay: Inhibition of Vps34 (unknown origin) interaction with PIK3 assessed as reduction in autophagy by increasing LC3 level
[6] = target: Serine/threonine-protein kinase mTOR (Homo sapiens, UniProt P42345); assay: Inhibition of mTOR in HEK293 cells; format: cell-based
[7] = target: T2, DNA polymerase alpha catalytic subunit (Homo sapiens, UniProt P09884); assay: Inhibition of human DNA polymerase-alpha (unknown origin)
T2 sequence (P09884 whole entry): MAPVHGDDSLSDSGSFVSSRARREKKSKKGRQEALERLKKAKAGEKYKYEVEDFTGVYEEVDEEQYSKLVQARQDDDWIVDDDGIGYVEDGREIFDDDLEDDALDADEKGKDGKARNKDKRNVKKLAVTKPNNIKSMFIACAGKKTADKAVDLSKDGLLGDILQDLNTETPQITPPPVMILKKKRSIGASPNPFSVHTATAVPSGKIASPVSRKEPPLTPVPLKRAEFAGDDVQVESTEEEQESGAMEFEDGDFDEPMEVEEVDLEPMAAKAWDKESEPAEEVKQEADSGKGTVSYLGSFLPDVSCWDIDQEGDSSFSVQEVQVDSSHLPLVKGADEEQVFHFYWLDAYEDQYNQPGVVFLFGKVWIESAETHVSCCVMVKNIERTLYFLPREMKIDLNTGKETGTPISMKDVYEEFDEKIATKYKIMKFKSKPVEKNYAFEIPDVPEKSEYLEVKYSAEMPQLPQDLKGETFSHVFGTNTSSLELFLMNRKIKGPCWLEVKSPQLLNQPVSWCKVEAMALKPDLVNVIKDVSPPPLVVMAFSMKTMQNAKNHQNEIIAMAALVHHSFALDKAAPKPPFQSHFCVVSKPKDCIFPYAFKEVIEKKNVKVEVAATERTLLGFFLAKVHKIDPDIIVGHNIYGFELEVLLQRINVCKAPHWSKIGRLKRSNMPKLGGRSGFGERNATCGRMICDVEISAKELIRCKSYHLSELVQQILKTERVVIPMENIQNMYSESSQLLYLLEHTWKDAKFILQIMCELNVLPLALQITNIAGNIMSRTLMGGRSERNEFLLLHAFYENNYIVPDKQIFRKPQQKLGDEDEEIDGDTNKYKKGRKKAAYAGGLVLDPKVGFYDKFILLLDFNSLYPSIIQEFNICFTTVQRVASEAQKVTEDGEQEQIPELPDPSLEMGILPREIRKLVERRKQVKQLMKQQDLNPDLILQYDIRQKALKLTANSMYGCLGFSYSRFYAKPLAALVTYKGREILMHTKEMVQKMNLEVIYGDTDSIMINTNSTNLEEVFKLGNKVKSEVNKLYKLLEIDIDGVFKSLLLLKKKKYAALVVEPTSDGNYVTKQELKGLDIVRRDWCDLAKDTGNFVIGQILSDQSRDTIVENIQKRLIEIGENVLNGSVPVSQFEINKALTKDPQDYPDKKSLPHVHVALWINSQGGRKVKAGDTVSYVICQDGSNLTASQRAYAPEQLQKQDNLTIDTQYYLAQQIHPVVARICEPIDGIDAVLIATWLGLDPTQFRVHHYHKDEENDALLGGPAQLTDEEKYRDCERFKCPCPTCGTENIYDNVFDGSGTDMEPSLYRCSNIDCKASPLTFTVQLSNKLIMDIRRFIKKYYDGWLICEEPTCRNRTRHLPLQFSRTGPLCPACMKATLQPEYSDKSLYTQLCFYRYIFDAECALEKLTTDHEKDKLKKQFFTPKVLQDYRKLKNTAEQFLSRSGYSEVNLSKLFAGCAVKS

[8] = target: T3, UDP-glucuronosyltransferase 1A1 (Homo sapiens, UniProt P22309); assay: Induction of UGT1A1 (unknown origin) assessed as increase in intracellular acidic autophagy vesicles formation; format: ADME, cell-based
T3 sequence (P22309 whole entry): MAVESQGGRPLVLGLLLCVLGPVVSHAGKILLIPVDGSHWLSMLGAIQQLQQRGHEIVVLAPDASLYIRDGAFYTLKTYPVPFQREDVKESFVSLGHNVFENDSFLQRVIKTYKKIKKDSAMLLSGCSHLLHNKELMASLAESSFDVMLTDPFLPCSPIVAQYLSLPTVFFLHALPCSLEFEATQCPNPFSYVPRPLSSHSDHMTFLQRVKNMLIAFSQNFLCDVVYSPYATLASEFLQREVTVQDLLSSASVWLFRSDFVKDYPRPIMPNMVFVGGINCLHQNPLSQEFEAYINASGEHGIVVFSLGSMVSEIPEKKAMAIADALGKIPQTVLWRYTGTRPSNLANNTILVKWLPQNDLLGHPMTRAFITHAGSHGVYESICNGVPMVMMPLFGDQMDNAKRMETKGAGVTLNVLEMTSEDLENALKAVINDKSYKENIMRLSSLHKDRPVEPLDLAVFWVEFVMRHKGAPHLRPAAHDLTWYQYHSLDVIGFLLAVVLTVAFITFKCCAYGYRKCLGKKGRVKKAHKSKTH

CYP450 = CYP450 (Homo sapiens, UniProt P04798+P05177+P05181+P08684+P10632+P10635+P11509+P11712+P13584+P20813+P20815+P20853+P24462+P24903+P33260+P33261+P51589+P78329+P98187+Q02928+Q08477+Q16678+Q16696+Q5TCH4+Q6VVX0+Q7Z449+Q8TAV3+Q96SQ9+Q9HB55); assay: Inhibition of CYP450 (unknown origin); format: ADME, protein assay
NSCLC = assay: Anticancer activity against human NSCLC cells; format: functional, cell-based

T1 sequence (Q8NEB9 whole entry): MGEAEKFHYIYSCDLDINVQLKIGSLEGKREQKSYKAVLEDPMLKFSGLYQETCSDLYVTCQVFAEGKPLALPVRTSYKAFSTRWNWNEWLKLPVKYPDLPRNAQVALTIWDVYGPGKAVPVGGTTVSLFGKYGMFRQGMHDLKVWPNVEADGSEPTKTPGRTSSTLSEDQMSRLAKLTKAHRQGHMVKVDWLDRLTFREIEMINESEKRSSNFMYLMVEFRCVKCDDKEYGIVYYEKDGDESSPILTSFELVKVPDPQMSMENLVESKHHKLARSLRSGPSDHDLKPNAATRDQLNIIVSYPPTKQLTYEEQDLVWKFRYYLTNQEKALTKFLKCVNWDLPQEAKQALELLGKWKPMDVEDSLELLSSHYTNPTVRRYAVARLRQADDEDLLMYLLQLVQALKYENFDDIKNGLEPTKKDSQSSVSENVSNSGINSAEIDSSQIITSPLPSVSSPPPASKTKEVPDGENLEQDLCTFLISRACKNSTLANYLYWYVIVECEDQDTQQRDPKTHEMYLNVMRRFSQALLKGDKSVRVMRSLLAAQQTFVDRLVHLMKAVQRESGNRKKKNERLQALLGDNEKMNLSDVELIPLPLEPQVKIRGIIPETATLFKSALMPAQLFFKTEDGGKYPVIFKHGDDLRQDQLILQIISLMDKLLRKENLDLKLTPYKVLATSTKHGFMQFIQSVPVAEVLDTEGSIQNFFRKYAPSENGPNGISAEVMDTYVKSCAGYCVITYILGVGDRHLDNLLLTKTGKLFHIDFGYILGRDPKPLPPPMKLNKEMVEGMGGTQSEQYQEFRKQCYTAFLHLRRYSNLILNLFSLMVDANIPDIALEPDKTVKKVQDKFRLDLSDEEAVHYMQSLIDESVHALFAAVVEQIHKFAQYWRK

Cc1cc(Nc2cc(Cl)nc(Oc3ccc([N+](=O)[O-])cc3)n2)n[nH]1
IC50 [1]: 19 nM

OCCNCc1ccc(OCc2ccc(F)cc2)c(OCc2ccc(F)cc2)c1
IC50 [2]: 4.6 µM

COc1ccc(N(C(=O)CCl)C(C(=O)NCCc2ccccc2)c2cccs2)cc1Cl (stereo not given)
IC50 [3]: 5.8 µM
IC50 [4]: 25 nM
IC50 [5]: 18 nM

CO[C@H]1C[C@@H]2CC[C@@H](C)[C@@](O)(O2)C(=O)C(=O)N2CCCC[C@H]2C(=O)O[C@H]([C@H](C)C[C@@H]2CC[C@@H](OCCO)[C@H](OC)C2)CC(=O)[C@H](C)/C=C(\C)[C@@H](O)[C@@H](OC)C(=O)[C@H](C)C[C@H](C)/C=C/C=C/C=C/1C [EVEROLIMUS]
IC50 [6]: 5 to 6 nM

Oc1ccc(/C=C/c2cc(O)cc(O)c2)cc1 [RESVERATROL]
IC50 [7]: 3.3 µM

C=CC(C)(C)c1cc(/C=C/C(=O)c2ccc(O)cc2)c(OC)cc1O [LICOAGROCHACONE A]
IC50 [8]: 970 nM

CCCC(C(=O)OCCN(CC)CC)(c1ccccc1)c1ccccc1 [PROADIFEN HYDROCHLORIDE]
IC50 (CYP450): 19 µM

COc1ccc(S(=O)(=O)Nc2cccnc2Nc2ccc(O)cc2)cc1 [ABT-751]
IC50 (NSCLC): 1500 nM

— ChEMBL document CHEMBL4622845, “p62/SQSTM1, a Central but Unexploited Target: Advances in Its Physiological/Pathogenic Functions and Small Molecular Modulators” (J Med Chem, 2020)
